From patent publication US9695155B2, “Herbicidal substituted pyrimidinyloxy benzene compounds” (E. I. DU PONT DE NEMOURS AND COMPANY, priority 2013, dated 2017)

How the values were obtained:
barnyardgrass = assay: Test B flooded paddy test; format: in vivo, Echinochloa crus-galli; details: Flood, 250 g ai/ha, 0 to 100 scale where 0 is no effect and 100 is complete control
Method in brief: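 Plants were grown to the 2-leaf stage, then pots were flooded to 3 cm above the soil and compounds were applied directly into the paddy water. That depth was held throughout, and after 13 to 15 days in the greenhouse injury was rated visually against controls on a 0–100 scale (0 no effect, 100 complete control).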

morningglory [1] = assay: Test C postemergence; format: in vivo, Ipomoea coccinea
Method in brief: (§1)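 Preemergence: seeds sown in a loam soil–sand blend and sprayed with test chemical in a non-phytotoxic solvent mixture containing surfactant. Postemergence: plants at 2 to 18 cm (1- to 4-leaf stage) in peat-based medium, treated with the same formulation. Greenhouse 13 to 15 days, then visual rating 0 (no effect) to 100 (complete control).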

pigweed [2] = assay: Test C postemergence; format: in vivo, Amaranthus retroflexus
Method in brief: as §1

kochia = assay: Test C postemergence; format: in vivo, Kochia scoparia
Method in brief: as §1

corn = assay: Test A preemergence; format: in vivo, Zea mays
Method in brief: (§2)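 Pre- and postemergence greenhouse screen. Soil: loam + sand. Spray carrier: solvent mixture, non-phytotoxic, with surfactant. Post timing at 1–2 leaves, height 2–10 cm. Readout: visual injury on a 0–100 scale roughly 10 days after application, untreated plants as reference.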

Italian ryegrass = assay: Test C postemergence; format: in vivo, Lolium multiflorum
Excerpt: Seeds of plant species selected from blackgrass (Alopecurus myosuroides), Italian ryegrass (Lolium multiflorum), wheat, winter (winter wheat, Triticum aestivum), galium (catchweed bedstraw, Galium aparine), corn (Zea mays), large (Lg) crabgrass (Digitaria sanguinalis), giant foxtail (Setaria faberii), johnsongrass (Sorghum halepense), lambsquarters (Chenopodium album), morningglory (Ipomoea coccinea), yellow nutsedge (Cyperus esculentus), pigweed (Amaranthus retroflexus), ragweed (common ragweed, Ambrosia elatior), soybean (Glycine max), barnyardgrass (Echinochloa crus-galli), oilseed rape (Brassica napus), waterhemp (common waterhemp, Amaranthus rudis), kochia (Kochia scoparia), wild oat (Avena fatua), surinam grass (Brachiaria decumbens), foxtail, green (green foxtail, Setaria viridis), goosegrass (Eleusine indica), bromegrass, downy (downy bromegrass, Bromus tectorum), nightshade (eastern black nightshade, Solanum ptycanthum), cocklebur (common cocklebur, Xanthium strumarium), cupgrass, woolly (woolly cupgrass, Eriochloa villosa), bermudagrass (Cynodon dactylon), sunflower, (common oilseed sunflower, Helianthus annuus), Russian thistle (Salsola kali), and velvetleaf (Abutilon theophrasti) were planted into a blend of loam soil and sand and treated preemergence with test chemicals formulated in a non-phytotoxic solvent mixture which included a surfactant.
At the same time, plants selected from these crop and weed species and also barley, winter (winter barley, Hordeum vulgare), windgrass (Apera spica-venti), chickweed (common chickweed, Stellaria media), deadnettle (henbit deadnettle, Lamium amplexicaule), and canarygrass (littleseed canarygrass, Phalaris minor) were planted in pots containing Redi-Earth® planting medium (Scotts Company, 14111 Scottslawn Road, Marysville, Ohio 43041) comprising spaghnum peat moss, vermiculite, wetting agent and starter nutrients and treated with postemergence applications of test chemicals formulated in the same manner. Plants ranged in height from 2 to 18 cm (1- to 4-leaf stage) for postemergence treatments. Treated plants and controls were maintained in a greenhouse for 13 to 15 days, after which time all species were compared to controls and visually evaluated. Plant response ratings, summarized in Table C, are based on a scale of 0 to 100 where 0 is no effect and 100 is complete control. A dash (-) response means no test result.

wheat = assay: Test A postemergence; format: in vivo, Triticum aestivum
Method in brief: as §2

morningglory [3] = assay: Test A preemergence; format: in vivo, Ipomoea spp.
Method in brief: as §2

pigweed [4] = assay: Test A postemergence; format: in vivo, Amaranthus retroflexus
Method in brief: as §2

velvetleaf [5] = assay: Test A postemergence; format: in vivo, Abutilon theophrasti
Method in brief: as §2

velvetleaf [6] = assay: Test A preemergence; format: in vivo, Abutilon theophrasti
Method in brief: as §2

giant foxtail = assay: Test A preemergence; format: in vivo, Setaria faberii
Method in brief: as §2

large (Lg) crabgrass = assay: Test A postemergence; format: in vivo, Digitaria sanguinalis
Method in brief: as §2

[7] = 31 g ai/ha, postemergence, visual rating, scale 0 to 100 (0 no effect, 100 complete control), 13 to 15 days
[8] = 125 g ai/ha, 0 to 100 scale where 0 is no effect and 100 is complete control
[9] = Postemergence, 31 g ai/ha, scale 0 to 100 (0 no effect, 100 complete control), 13 to 15 days
[10] = Postemergence, 62 g ai/ha, scale 0 to 100 (0 no effect, 100 complete control)
[11] = 1000 g ai/ha, 0 to 100 scale, 0 no effect, 100 complete control
[12] = 1000 g ai/ha, 0 to 100 scale, 0 no effect, 100 complete control, approx. 10 days

With `Fc1cccc(Oc2ncc(Cl)cn2)c1-n1cc(Br)cn1` [Compound 178, 2-[2-(4-bromo-1H-pyrazol-1-yl)-3-fluorophenoxy]-5-chloropyrimidine] the pest or weed control at 250 g/ha (barnyardgrass; Echinochloa crus-galli, read-out: Plant response rating, Barnyardgrass) was 0%, the “Morningglory plant response rating” value (morningglory [1]; [7]) was 70 and the pest or weed control at 16 g/ha (morningglory [1]; Ipomoea, post-emergence, 16 g ai/ha, postemergence, 0 is no effect, 100 is complete control, read-out: Plant response rating (0 to 100), Morningglory) was 10%. The pest or weed control at 125 g/ha (morningglory [1]; Ipomoea, post-emergence, 125 g ai/ha, postemergence, visual rating, scale 0 to 100 (0 no effect, 100 complete control), read-out: Plant response rating, Morningglory) was 65%, the pest or weed control at 62 g/ha (morningglory [1]; Ipomoea, post-emergence, Postemergence, 62 g ai/ha, scale 0 to 100 (0 no effect, 100 complete control), read-out: Plant response rating, Morningglory) was 85% and the “Pigweed plant response rating” value (pigweed [2]; [7]) was 85. It also gave a pest or weed control at 16 g/ha (pigweed [2]; Amaranthus retroflexus, post-emergence, 16 g ai/ha, postemergence, 0 is no effect, 100 is complete control, read-out: Plant response rating (0 to 100), Pigweed) of 80%, a pest or weed control at 125 g/ha (pigweed [2]; Amaranthus retroflexus, post-emergence, 125 g ai/ha, postemergence, visual rating, scale 0 to 100 (0 no effect, 100 complete control), read-out: Plant response rating, Pigweed) of 98% and a pest or weed control at 62 g/ha (pigweed [2]; Amaranthus retroflexus, post-emergence, Postemergence, 62 g ai/ha, scale 0 to 100 (0 no effect, 100 complete control), read-out: Plant response rating, Pigweed) of 95%. For the same compound, the pest or weed control at 16 g/ha (kochia; Bassia scoparia, post-emergence, 16 g ai/ha, postemergence, 0 is no effect, 100 is complete control, read-out: Plant response rating (0 to 100), Kochia) was 60%, the pest or weed control at 31 g/ha (kochia; Bassia scoparia, post-emergence, 31 g ai/ha, postemergence, visual rating, scale 0 to 100 (0 no effect, 100 complete control), 13 to 15 days, read-out: Kochia plant response rating) was 90% and the pest or weed control at 125 g/ha (kochia; Bassia scoparia, post-emergence, 125 g ai/ha, postemergence, visual rating, scale 0 to 100 (0 no effect, 100 complete control), read-out: Plant response rating, Kochia) was 95%. For the same compound, the pest or weed control at 62 g/ha (kochia; Bassia scoparia, post-emergence, Postemergence, 62 g ai/ha, scale 0 to 100 (0 no effect, 100 complete control), read-out: Plant response rating, Kochia) was 95%, the Corn plant response rating (crop injury, 0 = no effect, 100 = complete kill) at 125 g/ha (corn; Zea mays, pre-emergence, 240 h, 125 g ai/ha, 0 to 100 scale where 0 is no effect and 100 is complete control) was 0% and the plant injury at 500 g/ha (corn; Zea mays, pre-emergence, 240 h, 500 g ai/ha, 0 to 100 scale where 0 is no effect and 100 is complete control, read-out: Corn plant response rating) was 30%. For the same compound, the “Ryegrass, Italian plant response rating” value (Italian ryegrass; [7]) was 0, the pest or weed control at 16 g/ha (Italian ryegrass; Lolium multiflorum, post-emergence, 16 g ai/ha, postemergence, 0 is no effect, 100 is complete control, read-out: Plant response rating (0 to 100), Ryegrass, Italian) was 0% and the pest or weed control at 125 g/ha (Italian ryegrass; Lolium multiflorum, post-emergence, 125 g ai/ha, postemergence, visual rating, scale 0 to 100 (0 no effect, 100 complete control), read-out: Plant response rating, Ryegrass, Italian) was 20%. The pest or weed control at 62 g/ha (Italian ryegrass; Lolium multiflorum, post-emergence, Postemergence, 62 g ai/ha, scale 0 to 100 (0 no effect, 100 complete control), read-out: Plant response rating, Ryegrass, Italian) was 0%, the plant injury at 125 g/ha (wheat; Triticum aestivum, post-emergence, 240 h, 125 g ai/ha, 0 to 100 scale where 0 is no effect and 100 is complete control, read-out: Wheat plant response rating) was 40% and the plant injury at 500 g/ha (wheat; Triticum aestivum, post-emergence, 240 h, 500 g ai/ha, 0 to 100 scale where 0 is no effect and 100 is complete control, read-out: Plant response rating, Wheat) was 80%. For the same compound, the “Morningglory plant response rating (0 to 100 scale)” value (morningglory [3]; 125 g ai/ha) was 10, the pest or weed control at 500 g/ha (morningglory [3]; Ipomoea, pre-emergence, 240 h, 500 g ai/ha, 0 to 100 scale where 0 is no effect and 100 is complete control, read-out: Morningglory plant response rating) was 90% and the pest or weed control at 500 g/ha (pigweed [4]; Amaranthus retroflexus, post-emergence, 500 g ai/ha, 0 to 100 scale where 0 is no effect and 100 is complete control, read-out: Plant response rating, Pigweed) was 100%. For the same compound, the pest or weed control at 125 g/ha (pigweed [4]; Amaranthus retroflexus, post-emergence, 240 h, 125 g ai/ha, 0 to 100 scale where 0 is no effect and 100 is complete control, read-out: Pigweed plant response rating) was 100%, the “Velvetleaf plant response rating” value (velvetleaf [5]; [8]) was 100 and the pest or weed control at 500 g/ha (velvetleaf [5]; Abutilon theophrasti, post-emergence, 240 h, 500 g ai/ha, 0 to 100 scale where 0 is no effect and 100 is complete control, read-out: Plant response rating, Velvetleaf) was 100%. For the same compound, the “Velvetleaf plant response rating (0 to 100 scale)” value (velvetleaf [6]; 125 g ai/ha) was 80, the pest or weed control at 500 g/ha (velvetleaf [6]; Abutilon theophrasti, pre-emergence, 240 h, 500 g ai/ha, 0 to 100 scale where 0 is no effect and 100 is complete control, read-out: Velvetleaf plant response rating) was 100% and the pest or weed control at 125 g/ha (giant foxtail; Setaria faberi, pre-emergence, 240 h, 125 g ai/ha, 0 to 100 scale where 0 is no effect and 100 is complete control, read-out: Plant response rating, Foxtail, Giant) was 100%. The pest or weed control at 500 g/ha (giant foxtail; Setaria faberi, pre-emergence, 240 h, 500 g ai/ha, 0 to 100 scale where 0 is no effect and 100 is complete control, read-out: Foxtail, Giant plant response rating) was 100%, the “Crabgrass, Large plant response rating” value (large (Lg) crabgrass; [8]) was 90 and the pest or weed control at 500 g/ha (large (Lg) crabgrass; Digitaria sanguinalis, post-emergence, 240 h, 500 g ai/ha, 0 to 100 scale where 0 is no effect and 100 is complete control, read-out: Plant response rating, Crabgrass, Large) was 100%.

With `Clc1cnc(Oc2cccc(Br)c2-n2cc(Br)cn2)nc1` [Compound 65] the “Plant response rating, Barnyardgrass” value (barnyardgrass) was 0, the “Plant response rating (0 to 100), Morningglory” value (morningglory [1]; 125 g ai/ha, postemergence) was 95 and the “Plant response rating, Morningglory” value (morningglory [1]; [9]) was 30. For the same compound, the “Plant response rating, Morningglory” value (morningglory [1]; [10]) was 65, the “Plant response rating (0 to 100), Pigweed” value (pigweed [2]; 125 g ai/ha, postemergence) was 98 and the “Plant response rating, Pigweed” value (pigweed [2]; [9]) was 90. The “Plant response rating, Pigweed” value (pigweed [2]; [10]) was 95, the “Kochia plant response rating” value (kochia; 16 g ai/ha, postemergence, visual rating, scale 0 to 100 (0 no effect, 100 complete control), 13 to 15 days) was 90 and the “Plant response rating (0 to 100), Kochia” value (kochia; 125 g ai/ha, postemergence) was 98. For the same compound, the “Plant response rating, Kochia” value (kochia; [9]) was 90, the “Plant response rating, Kochia” value (kochia; [10]) was 98 and the “Plant response rating, Corn” value (corn; [11]) was 40. The “Plant response rating (0 to 100), Ryegrass, Italian” value (Italian ryegrass; 125 g ai/ha, postemergence) was 5, the “Plant response rating, Ryegrass, Italian” value (Italian ryegrass; [9]) was 0 and the “Plant response rating, Ryegrass, Italian” value (Italian ryegrass; [10]) was 0. For the same compound, the “Plant response rating, Wheat” value (wheat; [11]) was 60, the “Morningglory plant response rating” value (morningglory [3]; [12]) was 100 and the “Plant response rating, Pigweed” value (pigweed [4]; [11]) was 100. The “Plant response rating, Velvetleaf” value (velvetleaf [5]; [11]) was 100, the “Velvetleaf plant response rating” value (velvetleaf [6]; [12]) was 100 and the “Foxtail, Giant plant response rating” value (giant foxtail; [12]) was 100. For the same compound, the “Plant response rating, Crabgrass, Large” value (large (Lg) crabgrass; [11]) was 100.
